Test system: HUVEC
Assay: In vitro endothelial cell proliferation assay
Assay type: cell-based, Human
Conditions: for effect on anti-kringle 2 (7VPA) induced HUVEC proliferation: HUVEC stimulated with 700 nM (or 1400 nM) 7VPA, simultaneous addition
Method: Human umbilical vein endothelial cells (HUVEC) were purchased from Clonetics or isolated from umbilical vein cords by mild collagenase treatment as described and cultured in M199 with Earle's salts (Sigma) with 20% heat inactivated fetal bovine serum (Sigma), 100 IU/mL penicillin 100 μg/mL streptomycin (Gibco), 250 ng/mL fungizone (Gibco), 2 mM glutamine (Gibco), 5 IU/mL heparin (Sigma) and 50 μg/mL ECGS (Technoclone, Vienna, Austria). Human vascular smooth muscle cells (HVSMC) were isolated as described.
3×10^3 cells were plated in 96-well plates and allowed to attach overnight. Growth was arrested by incubation with 100 μL reduced growth medium (M199 with 2% FBS) for 24 h. Thereafter anti-tPA antibodies and other reagents were added to wells. K2P (Reteplase), anti-kringle 2 (7VPA) and anti-finger/EGF antibodies (3VPA and 6VPA) were a gift from Technoclone, Vienna, Austria. Anti-kringle 1 (PAM-2), anti-kringle 2 (ESP1) and anti-protease (374B and ESP2) antibodies were purchased from American Diagnostica, Alpha Labs, UK. D-mannitol and LY294002 were obtained from Sigma. VEGF121 and bFGF were purchased from R&D Systems Inc., UK. Recombinant single chain tPA (rsctPA) was obtained from Boehringher Ingelheim. The mutant alatPA was kindly provided by Prof. Roger Lijnen (Center for Molecular and Vascular Biology, Leuven, Belgium). Aprotinin was purchased from Boehringer Mannheim. The tPA peptides (tPA I and tPA II) corresponding to residues 7-17 and 15-26 respectively were synthesized by the Clinical Sciences Centre peptide synthesis facility at Hammersmith and the ICRF peptide unit. Rp-cAMPS and Lavendustin A were obtained from Calbiochem, UK. After 4 days of incubation cell number was quantified colorimetrically by the addition of 20 μL CellTiter 96 AQueous One Solution Cell Proliferation Assay (Promega) at 492 nm and 620 nm reference filter. Background absorbance was determined with substrate alone and subtracted from all wells.
HUVEC were plated at 1×10^5 cells in 12 well plates overnight. Medium was replaced with reduced growth medium overnight followed by addition of anti-K2 antibody. Control wells contained M199 and 2% FBS alone. After 3 days incubation cells were counted in a hemocytometer.

| Compound | effect on anti-kringle 2 (7VPA) induced HUVEC proliferation (4 days) | also measured |
| --- | --- | --- |
| O=C(O)c1cc(N(Cc2ccccc2O)Cc2cc(O)ccc2O)ccc1O [Lavendustin A, reference compound] | could inhibit |  |
| Nc1ncnc2c1ncn2[C@@H]1O[C@@H]2CO[P@@](O)(=S)O[C@H]2[C@H]1O [Rp-cAMPS, reference compound] | could inhibit |  |
| OC[C@@H](O)[C@@H](O)[C@H](O)[C@H](O)CO [mannitol, D-mannitol, reference compound] |  | effect on basal HUVEC/EC growth (substance alone) (M199 with 2% FBS, 4 days, colorimetric): No effect |
| angiostatin [reference compound] |  | concentration giving 50% inhibition (HUVEC growth, bFGF 10 ng/mL (FIG. 4B)): 45 µg/mL |
| aprotinin [reference compound] | could not block |  |

Reference: patent US20040071707A1, “Modulation of cell growth” (priority 2000, published 2004)
